Data on two molecules can be found in publication PMC6886544.

The target of data set [1] is ABL1-G250E (Homo sapiens, UniProt P00519, G250E). In words: SelectScreen kinase profiling, ABL1-G250E. It counts as biochemical. Conditions: mean ± SD of one measurement in duplicates. Here is the method:
(§1) Kinase profiling of compound 17a at a concentration of 1 µM generated with the SelectScreen® Profiling Service from Life Technologies.
(§2) Figure S2. Kinase profiling of compound 17a, Illustration as waterfall plot. 9 Kinases harboring a Cysteine isostructural to Cys797 in EGFR are highlighted
(§3) Kinase % inhibition Kinase % inhibition […]
(§4) aValues are the mean ± SD of one measurement in duplicates; bKinases harboring a Cysteine isostructural to Cys797 […]
(§5) (1 picture or pasted object on this page, not shown here)

Data set [2] has as its target YES1 (Homo sapiens, UniProt P07947). In words: SelectScreen kinase profiling, YES1. The class given is biochemical. Particulars: mean ± SD of one measurement in duplicates. As for the experimental part: as §1, §2, §3, §4, §5
For data set [3], the target named is BLK (Homo sapiens, UniProt P51451). In words: SelectScreen kinase profiling, BLK. Conditions: mean ± SD of one measurement in duplicates. It counts as biochemical. Here is the method: as §1, §2, §3, §4, §5
Sequence of BLK (P51451 whole entry): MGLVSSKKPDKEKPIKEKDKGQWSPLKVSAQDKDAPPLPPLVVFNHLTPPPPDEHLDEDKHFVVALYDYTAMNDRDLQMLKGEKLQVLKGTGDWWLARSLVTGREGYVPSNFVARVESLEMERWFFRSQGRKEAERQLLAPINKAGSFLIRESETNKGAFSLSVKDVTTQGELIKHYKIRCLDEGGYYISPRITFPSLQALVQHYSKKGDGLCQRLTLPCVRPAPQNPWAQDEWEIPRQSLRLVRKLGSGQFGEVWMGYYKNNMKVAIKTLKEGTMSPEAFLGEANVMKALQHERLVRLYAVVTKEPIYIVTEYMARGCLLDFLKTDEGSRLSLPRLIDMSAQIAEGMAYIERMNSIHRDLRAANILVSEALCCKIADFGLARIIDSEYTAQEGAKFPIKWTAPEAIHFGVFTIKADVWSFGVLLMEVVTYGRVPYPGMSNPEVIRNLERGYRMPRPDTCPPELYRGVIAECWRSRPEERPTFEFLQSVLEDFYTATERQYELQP
Data set [4] addresses FGFR2 (Homo sapiens, UniProt P21802). In words: SelectScreen kinase profiling, FGFR2. The class given is biochemical. Conditions: mean ± SD of one measurement in duplicates. Here is the method: as §1, §2, §3, §4, §5
For data set [5], the target named is EGFR-L858R (Homo sapiens, UniProt P00533, L858R). The data set can be described thus: SelectScreen kinase profiling, EGFR-L858R. It counts as biochemical. Conditions: mean ± SD of one measurement in duplicates. Here is the method:
as §1, §2, §3, §4, §5

In data set [6] the target is ABL1-Y253F (Homo sapiens, UniProt P00519, Y253F). In words: SelectScreen kinase profiling, ABL1-Y253F. The class given is biochemical. Particulars: mean ± SD of one measurement in duplicates. As for the experimental part: as §1, §2, §3, §4, §5
Data set [7] addresses FGFR1 (Homo sapiens, UniProt P11362). The data set can be described thus: SelectScreen kinase profiling, FGFR1. Conditions: mean ± SD of one measurement in duplicates. The class given is biochemical. As for the experimental part: as §1, §2, §3, §4, §5
The target of data set [8] is SRC-N1 (Homo sapiens, UniProt P12931). In words: SelectScreen kinase profiling, SRC-N1. Conditions: mean ± SD of one measurement in duplicates. The class given is biochemical. Here is the method: as §1, §2, §3, §4, §5
Sequence of SRC-N1 (P12931 1-542 isoform P12931-2): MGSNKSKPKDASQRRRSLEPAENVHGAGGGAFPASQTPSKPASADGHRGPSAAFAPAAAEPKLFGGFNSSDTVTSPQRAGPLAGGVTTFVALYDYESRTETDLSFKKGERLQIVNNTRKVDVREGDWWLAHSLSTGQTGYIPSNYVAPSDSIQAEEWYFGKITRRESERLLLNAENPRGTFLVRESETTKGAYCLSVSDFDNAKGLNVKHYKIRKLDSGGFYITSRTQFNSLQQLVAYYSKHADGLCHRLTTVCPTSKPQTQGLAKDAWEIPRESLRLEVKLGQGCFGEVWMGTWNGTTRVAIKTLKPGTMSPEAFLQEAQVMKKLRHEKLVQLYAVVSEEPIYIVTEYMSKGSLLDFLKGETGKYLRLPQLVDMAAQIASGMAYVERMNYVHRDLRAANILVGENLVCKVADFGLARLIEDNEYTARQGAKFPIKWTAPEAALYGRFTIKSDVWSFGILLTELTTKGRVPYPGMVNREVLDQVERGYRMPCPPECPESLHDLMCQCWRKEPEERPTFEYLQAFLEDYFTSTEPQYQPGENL
In data set [9] the target is EGFR-T790M/L858R (Homo sapiens, UniProt P00533, L858R/T790M). The data set can be described thus: SelectScreen kinase profiling, EGFR-T790M/L858R. It counts as biochemical. Conditions: mean ± SD of one measurement in duplicates. As for the experimental part: as §1, §2, §3, §4, §5
Sequence of EGFR-T790M/L858R (P00533 25-1210 T790M/L858R): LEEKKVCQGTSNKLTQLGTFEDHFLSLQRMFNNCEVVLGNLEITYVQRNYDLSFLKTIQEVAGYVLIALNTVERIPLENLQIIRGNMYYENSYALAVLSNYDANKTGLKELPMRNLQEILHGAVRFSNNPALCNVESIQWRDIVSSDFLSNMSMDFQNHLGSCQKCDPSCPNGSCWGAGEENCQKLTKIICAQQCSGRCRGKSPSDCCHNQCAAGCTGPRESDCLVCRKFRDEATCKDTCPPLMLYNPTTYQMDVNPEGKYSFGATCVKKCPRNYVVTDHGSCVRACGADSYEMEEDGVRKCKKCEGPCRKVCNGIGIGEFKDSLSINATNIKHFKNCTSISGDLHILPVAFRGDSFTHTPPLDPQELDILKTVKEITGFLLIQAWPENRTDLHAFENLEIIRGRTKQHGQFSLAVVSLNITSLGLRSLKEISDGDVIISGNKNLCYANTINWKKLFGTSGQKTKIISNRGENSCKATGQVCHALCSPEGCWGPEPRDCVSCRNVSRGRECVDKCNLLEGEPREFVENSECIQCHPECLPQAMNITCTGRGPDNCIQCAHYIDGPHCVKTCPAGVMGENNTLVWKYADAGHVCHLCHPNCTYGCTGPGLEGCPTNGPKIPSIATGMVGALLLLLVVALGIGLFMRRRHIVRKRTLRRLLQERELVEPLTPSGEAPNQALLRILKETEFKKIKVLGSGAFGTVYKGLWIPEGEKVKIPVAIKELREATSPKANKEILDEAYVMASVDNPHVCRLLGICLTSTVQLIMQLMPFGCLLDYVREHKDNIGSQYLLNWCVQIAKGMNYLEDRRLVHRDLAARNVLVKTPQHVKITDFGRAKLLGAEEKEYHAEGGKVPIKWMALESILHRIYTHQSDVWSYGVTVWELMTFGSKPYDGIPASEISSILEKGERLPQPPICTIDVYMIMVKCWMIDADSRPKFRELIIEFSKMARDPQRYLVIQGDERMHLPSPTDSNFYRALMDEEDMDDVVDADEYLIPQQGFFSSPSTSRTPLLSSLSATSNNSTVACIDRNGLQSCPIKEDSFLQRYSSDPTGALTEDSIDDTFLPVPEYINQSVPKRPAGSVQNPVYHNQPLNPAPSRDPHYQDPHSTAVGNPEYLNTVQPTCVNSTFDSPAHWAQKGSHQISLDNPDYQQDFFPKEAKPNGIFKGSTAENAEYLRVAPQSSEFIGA
Data set [10] in a line: Microsomal stability (phase I), human. Conditions: human liver microsomes, up to 50 minutes, 37 °C. The class given is in vitro ADME. Here is the method: Microsomal stability (phase I) assay.
Metabolic stability under oxidative conditions was measured in liver microsomes from different
time up to 50 minutes (HLM) or 60 minutes (MLM) at 37 °C. Based on the compound half-life t1/2,
the in vitro intrinsic clearance CLint was calculated. […]
In general terms: Liver microsomes are a subcellular fraction often used to study metabolism.

Data set [11] concerns the target EGFR-T790M (Homo sapiens, UniProt P00533, T790M). The data set can be described thus: Mass spectrometry analysis of covalent bond formation. The class given is binding. Set-up: made in house; host or cells: Sf9 insect cells (BacMagic system). Conditions: EGFR-T790M incubated with inhibitor on ice for 1 h. The text has this:
captured and quantified using a FUJI LAS3000 system with Science Lab 2001 ImageGauge 4.0 software (Fujifilm Medial Systems, Stamford CT, USA).
Rabbit antibodies specific for phospho-EGFR (Tyr1045), EGFR, Akt, phospho-Akt (Ser473), p42/44 mitogen-activated protein kinase (MAPK), phospho-p44/42 MAPK (Thr202/Tyr204), S6 ribosomal protein, phospho-S6 ribosomal protein (Ser235/236), mouse anti-β-actin antibody as well as HRP-conjugated anti-rabbit and anti-mouse secondary antibodies were purchased from Cell Signaling (Frankfurt, Germany; Beverly, MA).
Mass spectrometry experiments.
We used the drug-resistant mutant EGFR-T790M variant for MS experiments. We incubated a […]
glycerol, 1 mM TCEP, pH 8) on ice for 1 h. We analyzed the aliquots by ESI-MS using an Thermo Fisher Scientific Dionex UltiMate 3000 HPLC system connected to a Thermo Fisher Scientific Velos Pro (2d ion trap). Therefore, 5 μL of sample was injected and separated using a Vydac 214TP C4 5 μm column (150 mm x 2.1 mm) starting at 20% of solvent B for 5 minutes followed by a gradient up to 90% of solvent B over 14 min with a flow rate of 210 μL/min with 0.1% TFA in water as solvent A and 0.1% TFA in MeCN as solvent B. A mass range of 700 to 2000 m/z was scanned and raw data was deconvoluted and analyzed with MagTran software (Z.Q. Zhang, A.G. […]

Data set [12] in a line: Caco-2 assay. It counts as in vitro ADME. Conditions: human. As for the experimental part:
For Caco-2 cell assay, a 10 mM DMSO stock of the compound was diluted to a final concentration of 5 μM in HBSS buffer pH 7.4 and incubated for 2 hours at 37 °C and 5% CO2 on a monolayer of Caco-2 cells (ATCC) that had been grown on a transwell membrane (Millipore, Schwalbach, Germany) for 21 days. The compound concentration was measured in the receiver as well as the donor well. Apparent permeability (Papp) from either the apical to basolateral direction or vice versa […]
is the donor drug concentration at t = 0, and dQ/dt is the amount of drug transported within the given time period of 2 hours. […]

The nature of data set [13]: Plasma stability, mouse. It counts as in vitro ADME. Particulars: 5 µM, 1 h, 37 °C.

Sequence of FGFR1 (P11362 22-822): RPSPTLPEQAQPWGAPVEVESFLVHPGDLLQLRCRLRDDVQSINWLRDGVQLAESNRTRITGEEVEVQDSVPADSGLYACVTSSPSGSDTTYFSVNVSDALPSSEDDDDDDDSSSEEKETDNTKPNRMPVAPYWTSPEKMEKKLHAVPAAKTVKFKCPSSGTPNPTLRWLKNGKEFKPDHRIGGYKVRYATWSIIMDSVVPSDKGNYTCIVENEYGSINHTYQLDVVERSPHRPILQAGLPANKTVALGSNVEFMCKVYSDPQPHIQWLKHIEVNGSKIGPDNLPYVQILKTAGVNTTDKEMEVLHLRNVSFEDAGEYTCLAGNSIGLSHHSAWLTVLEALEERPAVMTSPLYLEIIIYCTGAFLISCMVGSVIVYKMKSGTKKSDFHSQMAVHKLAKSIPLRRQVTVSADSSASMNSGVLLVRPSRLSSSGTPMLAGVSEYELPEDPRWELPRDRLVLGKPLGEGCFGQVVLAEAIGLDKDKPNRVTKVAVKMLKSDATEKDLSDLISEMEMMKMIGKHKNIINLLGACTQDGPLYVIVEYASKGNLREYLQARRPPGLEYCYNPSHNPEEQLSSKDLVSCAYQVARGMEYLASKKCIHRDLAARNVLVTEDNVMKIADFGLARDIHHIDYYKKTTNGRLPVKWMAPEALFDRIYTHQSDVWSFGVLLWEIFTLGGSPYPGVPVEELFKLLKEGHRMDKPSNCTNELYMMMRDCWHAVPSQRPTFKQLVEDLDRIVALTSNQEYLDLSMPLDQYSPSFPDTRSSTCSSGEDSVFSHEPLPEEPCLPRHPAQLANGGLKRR
Sequence of EGFR-T790M (P00533 712-979 T790M limits assumed): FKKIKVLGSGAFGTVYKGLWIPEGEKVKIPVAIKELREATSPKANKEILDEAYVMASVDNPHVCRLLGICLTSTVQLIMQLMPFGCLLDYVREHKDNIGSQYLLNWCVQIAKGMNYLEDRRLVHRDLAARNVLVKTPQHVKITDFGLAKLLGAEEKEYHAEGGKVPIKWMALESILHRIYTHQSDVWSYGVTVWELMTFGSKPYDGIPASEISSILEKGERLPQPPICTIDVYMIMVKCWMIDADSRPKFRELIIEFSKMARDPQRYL
Sequence of YES1 (P07947 whole entry): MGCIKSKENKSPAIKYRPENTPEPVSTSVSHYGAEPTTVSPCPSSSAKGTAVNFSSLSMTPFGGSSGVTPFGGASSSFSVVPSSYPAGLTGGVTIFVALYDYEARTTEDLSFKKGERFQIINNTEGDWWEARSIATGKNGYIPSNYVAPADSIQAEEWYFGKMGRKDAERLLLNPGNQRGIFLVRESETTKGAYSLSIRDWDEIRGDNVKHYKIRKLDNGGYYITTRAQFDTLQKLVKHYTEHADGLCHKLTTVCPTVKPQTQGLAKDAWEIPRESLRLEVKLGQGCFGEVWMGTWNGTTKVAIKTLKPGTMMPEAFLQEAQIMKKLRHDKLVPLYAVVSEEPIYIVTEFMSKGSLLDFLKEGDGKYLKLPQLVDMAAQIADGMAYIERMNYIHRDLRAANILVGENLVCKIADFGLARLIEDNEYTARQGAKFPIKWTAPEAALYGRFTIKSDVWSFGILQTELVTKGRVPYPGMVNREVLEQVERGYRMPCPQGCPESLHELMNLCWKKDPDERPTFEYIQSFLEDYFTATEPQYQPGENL
Sequence of FGFR2 (P21802 22-821): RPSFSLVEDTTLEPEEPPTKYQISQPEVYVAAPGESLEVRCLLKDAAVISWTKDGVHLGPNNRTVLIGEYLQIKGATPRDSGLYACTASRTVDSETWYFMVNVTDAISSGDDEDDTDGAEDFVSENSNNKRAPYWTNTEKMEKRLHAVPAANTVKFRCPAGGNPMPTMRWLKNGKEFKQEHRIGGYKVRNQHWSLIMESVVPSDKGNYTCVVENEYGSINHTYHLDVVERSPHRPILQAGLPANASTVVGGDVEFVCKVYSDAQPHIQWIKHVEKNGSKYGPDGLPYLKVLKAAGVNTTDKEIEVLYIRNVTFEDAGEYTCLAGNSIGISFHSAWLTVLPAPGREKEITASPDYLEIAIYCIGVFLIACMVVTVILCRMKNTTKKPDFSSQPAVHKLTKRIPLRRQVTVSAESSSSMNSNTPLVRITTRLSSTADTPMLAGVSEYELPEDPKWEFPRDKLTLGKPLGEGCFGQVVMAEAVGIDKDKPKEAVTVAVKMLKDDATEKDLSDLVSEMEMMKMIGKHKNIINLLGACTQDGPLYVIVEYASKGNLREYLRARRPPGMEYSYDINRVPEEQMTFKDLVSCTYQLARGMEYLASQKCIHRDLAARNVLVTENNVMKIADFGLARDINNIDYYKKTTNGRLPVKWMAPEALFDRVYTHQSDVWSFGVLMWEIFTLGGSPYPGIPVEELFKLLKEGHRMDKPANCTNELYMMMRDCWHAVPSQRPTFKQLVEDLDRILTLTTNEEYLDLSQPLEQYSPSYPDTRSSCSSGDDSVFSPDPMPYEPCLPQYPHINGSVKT

For `C=CC(=O)Nc1cccc(-c2c(-c3ccc(CN4CCN(C)CC4)cc3)[nH]c3ncnc(OC)c23)c1` [Compound 17a], the inhibition (in general, the relative decrease from the control value, in per cent) at 1 µM in data set [1] amounted to 96%; in [2], 93 ± 1%; in data set [3], 99 ± 1%; in data set [4], 76 ± 1%; in [5], 89 ± 6%; in data set [6] it was 94%. Besides, the inhibition at 1 µM in data set [7] is 72 ± 4%; in data set [8], 95 ± 1%; in data set [9] it was 88 ± 1%.

On to `C=CC(=O)Nc1cccc(-c2c(-c3ccc(N4CCN(C)CC4)cc3)[nH]c3ncnc(OCC(C)C)c23)c1` [Compound 19h], for which, in [10], the microsomal CLint – broadly, a measure of how fast metabolising enzymes remove a compound, apart from limits set by blood flow – at 3 µM is 6.7 µL/min/mg. Further, the “covalent labelling by tandem mass spectrometry” value in data set [11] is given as “specific single alkylation of Cys797”. Also, the efflux ratio at 2 h, 5 µM in data set [12] (Caco-2, pH 7.4, efflux ratio, read-out: Caco-2: ratio (BA) : (AB)) came out at 3.1. In addition, the Papp A→B at 2 h, 5 μM in data set [12] (Caco-2, apical to basolateral, 5 μM, pH 7.4, 2 hours, read-out: Caco-2: Papp AB) came to 1.2 ×10⁻⁶ cm/s. The Papp B→A at 2 h, 5 μM in data set [12] (Caco-2, basolateral to apical, 5 μM, pH 7.4, 2 hours, read-out: Caco-2: Papp BA) was 3.6 ×10⁻⁶ cm/s. In addition, in [13], the Plasma stability was found to be 100 %remain.
